{"source": "paper PMC7462607", "about": "(eLife, 2020)", "key": {"[1]": {"target": "T1, CDK12KD/CCNKΔC (Homo sapiens, UniProt Q9NYV4)", "T1 construct": "Human CDK12KD (residues 715–1052); 6xHis (PreScission site) (N, cleaved yes); made in house; host or cells: Sf9 or High Five, co-infected with yeast CAK1", "T1 sequence (Q9NYV4 715-1052, stated change not applied)": "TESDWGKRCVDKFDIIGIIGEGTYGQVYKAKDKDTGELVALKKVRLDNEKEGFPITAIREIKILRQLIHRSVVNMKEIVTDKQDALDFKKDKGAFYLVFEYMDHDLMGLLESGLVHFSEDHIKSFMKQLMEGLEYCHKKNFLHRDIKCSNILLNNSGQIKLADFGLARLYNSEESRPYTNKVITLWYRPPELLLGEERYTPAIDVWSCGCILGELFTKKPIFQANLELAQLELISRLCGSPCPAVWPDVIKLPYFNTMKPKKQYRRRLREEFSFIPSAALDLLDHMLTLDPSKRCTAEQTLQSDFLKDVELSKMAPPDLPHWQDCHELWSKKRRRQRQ", "T1 sequence (O75909 11-267 partner limits assumed)": "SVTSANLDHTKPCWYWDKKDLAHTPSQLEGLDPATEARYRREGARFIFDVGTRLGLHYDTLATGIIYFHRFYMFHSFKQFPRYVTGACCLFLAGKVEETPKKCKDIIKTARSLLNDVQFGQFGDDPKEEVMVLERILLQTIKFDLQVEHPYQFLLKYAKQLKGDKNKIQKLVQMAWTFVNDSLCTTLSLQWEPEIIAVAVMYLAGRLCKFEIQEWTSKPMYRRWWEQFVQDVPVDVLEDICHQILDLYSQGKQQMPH", "test": "Differential Scanning Fluorimetry (DSF), CDK12KD/CCNKΔC", "assay_type": "binding", "settings": "50 µM HQ461, Sypro Orange; read-out: increase in melting temperature (Tm) of CDK12KD/CCNKΔC", "procedure": "(§1) CDK12KD/CCNKΔC (WT or G731E/R) and DDB1ΔBPB were diluted to 5 μM with DSF assay buffer (50 mM HEPES pH 7.5, 300 mM NaCl, 0.5 mM TCEP). 50 µM HQ461 or 10 µM HBx was added to diluted proteins (final DMSO concentration 0.25%). Twenty µL of protein-compound mix was aliquoted per qPCR tube (Labtidebiotech, Shanghai, China, P01-0803E) followed by the addition of 5 µL of 1:400 diluted SYPRO Orange (Sigma-Aldrich, MO, USA, S5692). After incubation on ice for 20 min, fluorescence measurements were performed using a Bio-Rad CFX96 Realtime PCR instrument. During the DSF experiment, the temperature was increased from 10°C to 95°C at an increment of 0.5 °C with equilibration time of 10 s at each temperature prior to measurement. Tm was defined as the temperature corresponding to the maximum value of the first derivative of fluorescence transition."}, "[2]": {"target": "T2, DDB1ΔBPB (Homo sapiens, UniProt Q16531, DEL400-704)", "T2 construct": "Strep-tag (N); 8xHis (N); made in house; host or cells: Sf9", "T2 sequence (Q16531 with tags, fused parts or gaps DEL400-704)": "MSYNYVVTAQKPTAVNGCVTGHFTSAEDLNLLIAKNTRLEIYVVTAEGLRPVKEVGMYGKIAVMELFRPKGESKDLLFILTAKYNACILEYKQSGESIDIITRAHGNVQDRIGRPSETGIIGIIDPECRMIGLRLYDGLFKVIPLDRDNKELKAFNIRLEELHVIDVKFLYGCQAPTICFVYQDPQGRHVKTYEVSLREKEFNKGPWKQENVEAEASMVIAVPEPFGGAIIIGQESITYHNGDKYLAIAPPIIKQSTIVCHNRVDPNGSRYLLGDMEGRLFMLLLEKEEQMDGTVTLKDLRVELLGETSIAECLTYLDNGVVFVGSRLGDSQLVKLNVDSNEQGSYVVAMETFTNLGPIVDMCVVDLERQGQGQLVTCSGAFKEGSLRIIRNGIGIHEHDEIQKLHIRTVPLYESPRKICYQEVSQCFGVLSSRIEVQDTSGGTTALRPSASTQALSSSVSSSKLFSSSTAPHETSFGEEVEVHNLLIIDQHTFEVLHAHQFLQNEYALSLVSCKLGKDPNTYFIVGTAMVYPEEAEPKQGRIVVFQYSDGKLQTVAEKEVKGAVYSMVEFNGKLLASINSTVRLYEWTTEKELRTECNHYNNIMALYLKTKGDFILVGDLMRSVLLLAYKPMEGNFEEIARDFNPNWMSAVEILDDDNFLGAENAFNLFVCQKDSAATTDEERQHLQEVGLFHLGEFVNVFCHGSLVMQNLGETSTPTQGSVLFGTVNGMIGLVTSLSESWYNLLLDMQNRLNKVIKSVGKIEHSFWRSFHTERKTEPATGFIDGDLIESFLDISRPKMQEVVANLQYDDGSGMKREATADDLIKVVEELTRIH", "test": "Differential Scanning Fluorimetry (DSF), DDB1ΔBPB", "assay_type": "binding", "settings": "50 µM HQ461", "procedure": "as §1"}, "[3]": {"target": "T3, FLAG-DDB1/CDK12KD/CCNKΔC (Homo sapiens, UniProt Q9NYV4)", "T3 construct": "Human CDK12KD (residues 715–1052); 6xHis (PreScission site) (N, cleaved yes); made in house; host or cells: Sf9 or High Five (CDK12KD/CCNKΔC, co-infected with yeast CAK1); 293F (FLAG-Avi-DDB1)", "T3 sequence (Q9NYV4 715-1052, stated change not applied)": "as the sequence (Q9NYV4 715-1052, stated change not applied) above", "T3 sequence (O75909 11-267 partner limits assumed)": "as the sequence (O75909 11-267 partner limits assumed) above", "T3 sequence (Q16531 whole entry partner, the tested form may be a part)": "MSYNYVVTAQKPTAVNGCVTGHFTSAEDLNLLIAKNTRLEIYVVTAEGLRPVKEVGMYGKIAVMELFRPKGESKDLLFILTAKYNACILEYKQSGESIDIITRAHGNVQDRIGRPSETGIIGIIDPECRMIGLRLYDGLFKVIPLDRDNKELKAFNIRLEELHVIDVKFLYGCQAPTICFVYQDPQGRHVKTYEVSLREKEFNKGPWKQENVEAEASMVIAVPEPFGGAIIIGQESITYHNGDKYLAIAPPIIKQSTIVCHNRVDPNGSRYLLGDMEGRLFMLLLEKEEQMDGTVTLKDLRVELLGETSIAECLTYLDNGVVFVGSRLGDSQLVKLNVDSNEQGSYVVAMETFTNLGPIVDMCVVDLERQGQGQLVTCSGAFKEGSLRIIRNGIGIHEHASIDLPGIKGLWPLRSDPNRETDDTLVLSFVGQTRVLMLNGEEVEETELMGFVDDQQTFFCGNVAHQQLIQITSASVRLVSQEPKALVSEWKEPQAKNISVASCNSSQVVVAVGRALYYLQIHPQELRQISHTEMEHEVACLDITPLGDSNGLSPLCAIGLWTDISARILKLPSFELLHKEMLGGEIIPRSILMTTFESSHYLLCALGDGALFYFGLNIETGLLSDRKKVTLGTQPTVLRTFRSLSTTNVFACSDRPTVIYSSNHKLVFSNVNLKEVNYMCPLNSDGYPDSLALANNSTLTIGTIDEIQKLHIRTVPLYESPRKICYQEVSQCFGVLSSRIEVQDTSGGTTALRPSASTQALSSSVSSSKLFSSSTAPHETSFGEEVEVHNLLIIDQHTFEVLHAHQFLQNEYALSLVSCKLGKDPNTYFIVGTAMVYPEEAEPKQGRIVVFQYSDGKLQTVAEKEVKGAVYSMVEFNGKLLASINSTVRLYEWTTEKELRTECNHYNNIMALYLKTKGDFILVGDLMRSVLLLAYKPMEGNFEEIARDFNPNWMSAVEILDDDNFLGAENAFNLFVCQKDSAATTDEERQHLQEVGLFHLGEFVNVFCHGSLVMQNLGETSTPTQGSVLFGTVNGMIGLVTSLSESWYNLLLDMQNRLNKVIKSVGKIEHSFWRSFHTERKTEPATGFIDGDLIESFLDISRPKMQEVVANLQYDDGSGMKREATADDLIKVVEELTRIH", "test": "FLAG-DDB1:CDK12KD/CCNKΔC pull down assay", "assay_type": "binding", "procedure": "FLAG-Avi-DDB1 (18.2 µg) was mixed with CDK12KD/CCNKΔC (10 µg) at 1:1 molar ratio in 500 μL of pulldown assay buffer containing 50 mM HEPES, pH 7.5, 300 mM NaCl, 0.5 mM TCEP. The protein mix was then supplemented with DMSO or HQ461. After 30 min of incubation on ice, the protein-compound mix was incubated with anti-FLAG M2 affinity gel for another 30 min on a rotator at 4 °C. Protein-bound beads were washed three times with the pulldown assay buffer and bound proteins were eluted with 0.2 mg/mL FLAG peptide. Eluted proteins were analyzed by SDS-PAGE followed by coomassie blue staining."}, "[4]": {"tested_on": "ARE-luc2P activity (NRF2)", "test": "ARE-luc2P reporter assay (NRF2 activity)", "assay_type": "cell-based", "settings": "Homo sapiens; A549 ARE-luc2P reporter cells", "procedure": "A549 cells were transiently transfected with the plasmid pGL4.37 (Promega, Madison, USA) and selected with 500 µg/ml of hygromycin to obtain a stable cell line harboring the ARE-luc2P reporter. TK-luc2P was cloned into the pLVX-IRE-Puro backbone by replacing its CMV promoter and multiple cloning site with HSV-TK promoter fused to luc2P. The resulting pLVX-TK-luc2P-IRES-Puro plasmid was packaged into lentivirus to transduce A549 cells. Stable cell lines were obtained by selection of transduced cells with 2 µg/ml of puromycin.\nA screening library with 65,790 small molecules (Life Chemicals, Niagara-on-the-Lake, Canada) were used in primary screening. The screening procedures were as follows. Seven hundred A549 ARE-luc2P cells in 50 µL of medium were plated per well in 384-well flat clear bottom white polystyrene TC-treated microplates (Corning, Corning, USA) and allowed to attach to plates overnight. […] Twelve hours later, ARE-luc2P activities were measured with Bright-Glo luciferase assay system (Promega, Madison, USA) following vendor instructions. Luminescence was measured on a EnVision multimode plate reader (PerkinElmer, Waltham, USA). Luminescence data on each plate was Z-score normalized using the equation Z=x−μ/σ , where x is the luminescence value of a well, µ is the mean and σ is the standard deviation of all values on one plate. […]"}, "[5]": {"tested_on": "CCNK-luc reporter", "test": "CCNK-luc degradation assay", "assay_type": "cell-based, Homo sapiens", "settings": "8 hr", "procedure": "The ORF for CCNK was fused with the firefly luciferase (luc) sequence and inserted into the pCDNA3.1 vector. For setting up cells for co-transfection, 0.6 million 293 T cells were seeded per well in 6-well plates and allowed to attach to plates overnight. These cells were then transfected with 50 ng of pCDNA3.1-3xFLAG-CDK12 kinase domain, 50 ng of pCDNA3.1-CCNK-luc, and 400 ng of the empty pCDNA3.1 vector. Twenty-four hours later, transfected cells were dissociated by trypsin digestion and then plated in 96-well white plates. After overnight attachments, cells were then treated with HQ461 and its analog derivatives for 8 hr followed by measurements of luciferase activity with Bright-Glo luciferase assay system (Promega, Madison, USA). Half maximal CCNK-degradation concentrations (DC50) of HQ461 and its active analogs were interpolated by curve fitting with GraphPad Prism using baseline correction (by normalizing to DMSO control), the asymmetric (five parameter) equation, and least squares fit."}, "[6]": {"target": "T4, CDK12 kinase domain/CCNK-3xHA (Homo sapiens, UniProt Q9NYV4)", "T4 construct": "ORFs encoding residues 715–1052 of CDK12 and residues 693–1030 of CDK13; expressed in transfected cells; host or cells: 293T", "T4 sequence (Q9NYV4 715-1052)": "as the sequence (Q9NYV4 715-1052, stated change not applied) above", "T4 sequence (O75909 whole entry partner, the tested form may be a part)": "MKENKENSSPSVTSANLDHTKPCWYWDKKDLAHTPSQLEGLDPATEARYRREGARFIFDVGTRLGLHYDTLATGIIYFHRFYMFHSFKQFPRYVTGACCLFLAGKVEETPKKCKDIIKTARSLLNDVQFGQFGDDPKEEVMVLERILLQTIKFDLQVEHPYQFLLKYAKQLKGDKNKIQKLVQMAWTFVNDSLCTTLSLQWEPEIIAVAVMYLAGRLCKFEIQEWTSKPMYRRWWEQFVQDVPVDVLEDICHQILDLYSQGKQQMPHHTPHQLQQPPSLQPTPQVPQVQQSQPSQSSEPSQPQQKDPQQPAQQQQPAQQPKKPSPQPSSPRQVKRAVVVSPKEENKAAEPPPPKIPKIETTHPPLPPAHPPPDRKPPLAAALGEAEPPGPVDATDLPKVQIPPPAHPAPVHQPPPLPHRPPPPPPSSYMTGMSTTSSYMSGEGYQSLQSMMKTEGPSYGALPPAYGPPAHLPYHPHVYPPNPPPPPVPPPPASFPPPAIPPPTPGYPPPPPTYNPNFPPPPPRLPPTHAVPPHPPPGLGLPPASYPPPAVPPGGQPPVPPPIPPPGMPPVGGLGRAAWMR", "T4 sequence (Q16531 2-1140 partner limits assumed)": "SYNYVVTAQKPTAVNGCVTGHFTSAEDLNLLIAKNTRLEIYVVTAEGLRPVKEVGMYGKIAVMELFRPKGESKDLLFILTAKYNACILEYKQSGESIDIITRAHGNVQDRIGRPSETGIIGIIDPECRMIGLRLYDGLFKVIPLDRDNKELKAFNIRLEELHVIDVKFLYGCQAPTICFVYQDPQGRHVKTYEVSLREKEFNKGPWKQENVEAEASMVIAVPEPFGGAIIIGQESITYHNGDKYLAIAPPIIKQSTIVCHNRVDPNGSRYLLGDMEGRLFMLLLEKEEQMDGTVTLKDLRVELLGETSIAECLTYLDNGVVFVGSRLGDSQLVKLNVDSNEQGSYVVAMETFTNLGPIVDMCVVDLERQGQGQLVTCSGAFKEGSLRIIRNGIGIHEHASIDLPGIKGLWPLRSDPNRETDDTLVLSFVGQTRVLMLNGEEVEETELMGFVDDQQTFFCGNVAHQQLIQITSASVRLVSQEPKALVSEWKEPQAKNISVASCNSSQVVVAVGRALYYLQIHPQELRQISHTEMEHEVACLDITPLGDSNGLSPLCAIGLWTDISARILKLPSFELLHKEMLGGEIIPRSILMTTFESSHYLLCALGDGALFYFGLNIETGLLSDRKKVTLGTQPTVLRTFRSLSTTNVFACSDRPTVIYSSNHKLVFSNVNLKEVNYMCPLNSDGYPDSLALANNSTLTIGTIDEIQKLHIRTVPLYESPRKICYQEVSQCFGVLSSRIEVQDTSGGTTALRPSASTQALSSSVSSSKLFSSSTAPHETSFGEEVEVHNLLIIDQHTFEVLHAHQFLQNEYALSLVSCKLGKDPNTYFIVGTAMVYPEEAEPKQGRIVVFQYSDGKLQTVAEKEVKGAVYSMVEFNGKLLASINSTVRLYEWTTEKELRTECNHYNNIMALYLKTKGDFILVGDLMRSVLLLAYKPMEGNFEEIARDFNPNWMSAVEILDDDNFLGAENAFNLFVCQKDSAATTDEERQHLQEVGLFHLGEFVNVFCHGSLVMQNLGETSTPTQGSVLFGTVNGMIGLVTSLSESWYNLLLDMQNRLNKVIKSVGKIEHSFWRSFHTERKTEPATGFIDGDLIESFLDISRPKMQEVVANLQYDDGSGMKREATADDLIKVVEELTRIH", "test": "Co-expression of 3xFLAG-CDK12 kinase domain with CCNK-3xHA", "assay_type": "cell-based", "settings": "293T, HQ461 8 hr; not with G731E or G731R", "procedure": "ORFs encoding residues 715–1052 of CDK12 and residues 693–1030 of CDK13 were cloned into a pCDNA3.1-N-3xFLAG vector. For setting up cells for co-transfection, 0.6 million 293 T cells were seeded per well in 6-well tissue-culture plates and allowed to attach to plates overnight. These cells were then transfected with 50 ng of pCDNA3.1-3xFLAG-CDK12/13 kinase domain, 50 ng of pCDNA3.1-CCNK-3xHA, and 400 ng of the empty pCDNA3.1 vector. Twenty-four hours post transfection, cells were treated with HQ461 for 8 hr, and lysates were collected for western blotting with anti-FLAG and anti-HA antibodies."}}, "data": [{"smiles": "Cc1cccc(Nc2nc(CC(=O)Nc3ncc(C)s3)cs2)n1", "note": "[HQ461, 2-(2-((6-methylpyridin-2-yl)amino)thiazol-4-yl)-N-(5-methylthiazol-2-yl)acetamide]", "values": [{"measurement": "ΔTm at 50 µM", "setting": "[1]", "result": 1.4, "unit": "°C"}, {"measurement": "thermal stability of DDB1ΔBPB", "setting": "[2]", "result": "did not change the thermal stability"}, {"measurement": "complex formation of DDB1 with CDK12KD/CCNKΔC (pulldown)", "setting": "[3]", "result": "near-stoichiometric complex"}, {"measurement": "IC50", "setting": "[4]", "result": 3.6, "unit": "µM"}, {"measurement": "Dmax (10 μM), percentage of CCNK degradation relative to DMSO control", "setting": "[5]; 10 µM", "result": 86.0, "unit": "%"}, {"measurement": "DC50", "setting": "[5]; 293T, read-out: DC50 (half maximal CCNK-degradation concentration)", "result": 0.132, "unit": "µM"}, {"measurement": "CCNK destabilization with co-expressed wild-type CDK12 kinase domain", "setting": "[6]", "result": "sufficient for mediating HQ461-dependent destabilization of CCNK"}]}]}
